Experiment in all cases: relative viability (nuclei count vs DMSO), 5 days (fraction); higher = more cells survive
Compound in test [1]: C/C(=N\NC(=S)N1CCC1)/C2=CC=CC=N2 + C[C@@H](Oc1cc(-c2cnn(C3CCNCC3)c2)cnc1N)c1c(Cl)ccc(F)c1Cl [Crizotinib] (partner 1 µM)
The gist of the method:
(§1)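 Lung cancer cell lines were seeded in 1536-well plates and dosed by pin tool the next day, with either a single drug or a fixed anchor-drug dose combined with five library-drug doses (not always all listed) spaced in √10 steps. Five days later, one step fixed the cells and stained their nuclei (final 0.05% Triton X-100, 1% formaldehyde, 1 ug/ml Hoechst), and nuclei were counted on 4× images. Relative viability is the nuclei count in treated wells divided by the count in vehicle wells, and each value is the median of duplicate plates.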

Compound in test [2]: C/C(=N\NC(=S)N1CCC1)/C2=CC=CC=N2 + Cc1nc(Nc2ncc(C(=O)Nc3c(C)cccc3Cl)s2)cc(N2CCN(CCO)CC2)n1 [Dasatinib] (partner 0.075 µM)
The method in brief:
as §1

Compound in test [3]: C/C(=N\NC(=S)N1CCC1)/C2=CC=CC=N2 + O=C(CCCCCCC(=O)Nc1ccccc1)NO [Vorinostat] (partner 1 µM)
The method in brief:
as §1

Compound in test [4]: C/C(=N\NC(=S)N1CCC1)/C2=CC=CC=N2 + CC1(C)CCC(c2ccc(Cl)cc2)=C(CN2CCN(c3ccc(C(=O)NS(=O)(=O)c4ccc(N[C@H](CCN5CCOCC5)CSc5ccccc5)c(S(=O)(=O)C(F)(F)F)c4)cc3)CC2)C1 [Navitoclax] (partner 0.5 µM)
The method in brief:
as §1

As for HCC-366, the relative viability in test [1] (first compound 0.05 µM) was found to be 0.0857; in test [1] (first compound 0.1581 µM), 0.0157; in test [1] (first compound 0.5 µM) it was 0.0133; in test [1] (first compound 1.581 µM) it was 0.0162; in test [1] (first compound 5 µM), 0.018; in test [2] (first compound 0.05 µM) it was 0.0305. The relative viability in test [2] (first compound 0.1581 µM) came to 0.0271; in test [2] (first compound 0.5 µM), 0.0302; in test [2] (first compound 1.581 µM) it was 0.0382; in test [2] (first compound 5 µM), 0.031; in test [3] (first compound 0.05 µM), 0.0207; in test [3] (first compound 0.1581 µM), 0.0269. For the same cell line, the relative viability in test [3] (first compound 0.5 µM) came out at 0.0257; in test [3] (first compound 1.581 µM), 0.0337; in test [3] (first compound 5 µM), 0.0244; in test [4] (first compound 0.05 µM), 0.0139; in test [4] (first compound 0.1581 µM), 0.0237; in test [4] (first compound 0.5 µM), 0.0184. Also, the relative viability in test [4] (first compound 1.581 µM) is 0.0179; in test [4] (first compound 5 µM) it was 0.0172.
As for NCI-H322M, the relative viability in test [1] (first compound 0.05 µM) was found to be 0.312; in test [1] (first compound 0.1581 µM), 0.988; in test [1] (first compound 0.5 µM), 0.213; in test [1] (first compound 1.581 µM), 0.247; in test [1] (first compound 5 µM), 0.254; in test [2] (first compound 0.05 µM) it was 0.183. The relative viability in test [2] (first compound 0.1581 µM) was 0.309; in test [2] (first compound 0.5 µM) it was 0.263; in test [2] (first compound 1.581 µM), 0.247; in test [2] (first compound 5 µM), 0.282; in test [3] (first compound 0.05 µM), 0.337; in test [3] (first compound 0.1581 µM) it was 0.345. Moreover, the relative viability in test [3] (first compound 0.5 µM) is 0.358; in test [3] (first compound 1.581 µM), 0.465; in test [3] (first compound 5 µM), 0.438; in test [4] (first compound 0.05 µM), 0.268; in test [4] (first compound 0.1581 µM), 1.21; in test [4] (first compound 0.5 µM) it was 0.208. Further, the relative viability in test [4] (first compound 1.581 µM) is 0.281; in test [4] (first compound 5 µM), 0.277.
In the case of NCI-H2347, the relative viability in test [1] (first compound 0.05 µM) stood at 0.557; in test [1] (first compound 0.1581 µM), 0.438; in test [1] (first compound 0.5 µM) it was 0.322; in test [1] (first compound 1.581 µM) it was 0.233; in test [1] (first compound 5 µM) it was 0.302; in test [2] (first compound 0.05 µM), 0.209. Besides, the relative viability was 0.199 in test [2] (first compound 0.1581 µM); 0.26 in test [2] (first compound 0.5 µM); 0.23 in test [2] (first compound 1.581 µM); 0.179 in test [2] (first compound 5 µM); 0.315 in test [3] (first compound 0.05 µM); 0.305 in test [3] (first compound 0.1581 µM). Further, the relative viability was found to be 0.227 in test [3] (first compound 0.5 µM); 0.276 in test [3] (first compound 1.581 µM); 0.243 in test [3] (first compound 5 µM); 0.214 in test [4] (first compound 0.05 µM); 0.263 in test [4] (first compound 0.1581 µM); 0.195 in test [4] (first compound 0.5 µM). The values for the relative viability in test [4] (first compound 1.581 µM) and in test [4] (first compound 5 µM) were 0.16 and 0.193, respectively.
In the case of NCI-H1975, the relative viability is 0.177 in test [1] (first compound 0.05 µM); 0.144 in test [1] (first compound 0.1581 µM); 0.159 in test [1] (first compound 0.5 µM); 0.143 in test [1] (first compound 1.581 µM); 0.156 in test [1] (first compound 5 µM); 0.104 in test [2] (first compound 0.05 µM). For the same cell line, the relative viability in test [2] (first compound 0.1581 µM) came out at 0.0967; in test [2] (first compound 0.5 µM) it was 0.0846; in test [2] (first compound 1.581 µM), 0.0879; in test [2] (first compound 5 µM) it was 0.0899; in test [3] (first compound 0.05 µM), 0.173; in test [3] (first compound 0.1581 µM), 0.167. Moreover, the relative viability in test [3] (first compound 0.5 µM) amounted to 0.136; in test [3] (first compound 1.581 µM) it was 0.154; in test [3] (first compound 5 µM), 0.167; in test [4] (first compound 0.05 µM) it was 0.169; in test [4] (first compound 0.1581 µM) it was 0.143; in test [4] (first compound 0.5 µM) it was 0.152. Further, the relative viability turned out to be 0.163 in test [4] (first compound 1.581 µM) and 0.168 in test [4] (first compound 5 µM).

The values above are taken from the supplement of paper PMC10307832.
